Test results from patent publication US7705016B2, “Regulation of food intake by modulation of long-chain fatty acyl-CoA levels in the hypothalamus” (Albert Einstein College of Medicine of Yeshiva University, priority 2003, dated 2010).
“And” between values parts separate entries of the source, which are not always exact repeats. Identical values can stand only once. “Also recorded” adds a separate entry of the source.

Assays:
[1] = system: male Sprague-Dawley (S-D) rats; assay: Feeding behavior after ICV oleic acid bolus; assay type: in vivo, rat; details: for decrease in food intake compared with pre-injection basal levels: SC animals
Text: Animals and Experimental Design. Ten week-old male Sprague-Dawley (S-D) rats (Charles River Breeding Laboratories, Inc., Wilmington, Mass.) were housed in individual cages and subjected to a standard light dark cycle (0600-1800/1800-0600). At 14 days before the in vivo studies, all rats received implantations of ICV catheters by stereotaxic surgery as previously described (36). Rats were allowed to recover completely before initiation of all in vivo studies. Animals were fed a standard chow (SC, cat. no. 5001, Purina Mills Ltd, with 59% calories provided by carbohydrate, 28% by protein and 12% by fat, 3.3 kcal/g), a high sucrose (HS; animals were given free access to a 20% sucrose solution in addition to their standard chow diet), or a highly palatable high fat diet (HF, cat. no. 9389; Purina Mills Ltd., with 45% calories provided by carbohydrate, 22% by protein and 33% by fat, 5.32 kcal/g) which was designed by the supplementation of the SC diet with 10% lard. The lard contained 2% myristic acid, 24% palmitic acid, 13% stearic acid, 46% oleic acid, and 12% linoleic acid. The total composition of fats in the HF diet was 5.2% saturated, 6.2% monounsaturated, and 2.7% polyunsaturated fat by weight. The SC diet contained 1%, 1.5%, and 1.6% of saturated, monounsaturated, and polyunsaturated fats by weight, respectively. Five groups of animals ere included in the feeding and metabolic studies (described below) after three days on the following diet regimens (Table 2): 1) SC ad libitum (SC; ˜80 kcal/day); 2) HS ad libitum (HS; ˜95 kcal/day); 3) HF ad libitum (HF140; ˜140 kcal/day); 4) HF calorie restricted (HF55; ˜55 kcal/day); and 5) HF pair-fed to SC(HF80; ˜80 kcal/day). Central Delivery of OA. OA was complexed with the polymer hydroxypropyl-3-cyclodextrin (HPB, CTD Inc). […] OA was solubilized in 45% HPB to a final concentration of 17 mM. The HPB-OA solution was diluted in artificial cerebral spinal fluid (aCSF) to the appropriate concentration used for each ICV injections (30 or 300 nmol/5 μl). HPB alone at a similar concentration as in the OA studies was used in all vehicle control studies. Feeding Behavior Studies. This experimental protocol was designed to examine the acute effect of ICV OA on food intake in three experimental groups fed a standard chow (SC), a high sucrose diet (HS95) and a high fat diet (HF140). SC and HF140 animals were allowed to eat their diets ad libitum. HS animals were given free access to a 20% sucrose solution in addition to the standard chow diet for three days. Following three days of ad libitum feeding in all groups, on study day 0 (FIG. 5a), rats were given an ICV bolus injection of either […] of OA (30 nmol) or vehicle at a rate of 1 μl/min using a gas-tight syringe (Hamilton Corp) one hour before the start of the dark cycle. Food intake was measured at the same time daily for three days post-injection.

[2] = system: male Sprague-Dawley (S-D) rats; assay: ICV OA infusion with pancreatic-insulin clamp (insulin action studies); assay type: in vivo, rat; details: for effect on GP: over-fed rats (HF140)
Text: Insulin action studies. The experimental protocol herein was designed to examine the effect of nutritional status on the ability of long-chain fatty acids in the hypothalamus to modulate carbohydrate metabolism. Rats (n=43) were implanted with chronic catheters as previously described (Liu et al., 1998). After full recovery from the catheterization, animals were randomized into three groups HF55 (n=16), HF80 (n=9), or HF140 (n=18) and were allowed to consume their allocated diet for three days. On the night prior to the in vivo study all rats received 55 kcal to ensure a similar nutritional state at the start of the metabolic studies. All studies were performed in awake, unstressed, chronically catheterized rats. At t=−120 (FIG. 7a), a primed-continuous infusion of ICV OA (total dose 30- or 300-nmol) or Vehicle (HBP 10% in aCSF) was initiated and maintained throughout the duration of the study. Plasma glucose was measured periodically initiating at the onset (t=−120) of the ICV infusion and lasting throughout the duration of the study. Plasma samples for determination of insulin, leptin, and non-esterified fatty acid concentration were obtained at the onset (t=−120) and at 30 min intervals during the study. At t=0, and a primed-continuous infusion of HPLC-purified [3-3H]-glucose (New England Nuclear, Boston, Mass.; 40 μCi bolus, 0.4 μCi/min for duration of the study) was initiated and maintained for the last four hours of the study. Samples for determination of ^3H-glucose specific activity were obtained at 10-minute intervals throughout infusions. Finally, at t=120, a pancreatic-insulin clamp study was initiated and maintained for two hours. During this procedure, a primed-continuous infusion of regular insulin (1 mU/kg/min) was administered, and a variable infusion of 25% glucose solution was started at t=120 and periodically adjusted to clamp the plasma glucose concentration at ˜7 mM. The rate of insulin infusion was designed to replace the plasma insulin concentration at ˜the average basal levels in post-absorptive rats. In order to control for possible effects of the ICV injections on endocrine pancreas, somatostatin (3 μg/kg/min) was coinfused with insulin to inhibit endogenous insulin secretion. At the end of the in vivo studies, rats were anesthetized (pentobarbital 55 mg/kg body weight, intravenously) and tissue samples were freeze-clamped in situ with aluminum tongs pre-cooled in liquid nitrogen. All tissue samples were stored at −80° C. for subsequent analysis.
Analytical Procedures and Calculations. Plasma glucose was measured by the glucose oxidase method (Glucose Analyzer II, Beckman Instruments, Inc. Fullerton, Calif., USA). Plasma insulin and leptin levels were determined by RIA (rat Leptin RIA kit, Linco Research Inc., St. Charles, Mo.). Serum adiponectin was measured by RIA (Linco Research, Inc., St. Charles, Mo.). Plasma non-esterified fatty acid concentrations were determined an enzymatic method by an automated kit according to the manufacturer's specifications (Waco Pure Chemical Industries. Osaka, Japan). The radioactivity of [3-^3H]glucose in plasma was measured from supernatants of Ba (OH)2 and from ZnSO4 precipitates (Somogyi procedure), after each was evaporated to dryness for the removal of tritiated water. […]

CCCCCCCC/C=C\CCCCCCCC(=O)O [OA, oleic acid]
decrease in daily food intake ([1]; HF140, ICV OA 30 nmol, first day): 11%
decrease in daily food intake ([1]; HF140, ICV OA 30 nmol, second day): −2%
decrease in daily food intake ([1]; HS95, ICV OA 30 nmol, first day): 21%
decrease in daily food intake ([1]; HS95, ICV OA 30 nmol, second day): 17%
decrease in food intake compared with pre-injection basal levels ([1]; ICV OA 30 nmol, first day): 48%
decrease in food intake compared with pre-injection basal levels ([1]; ICV OA 30 nmol, second day): 52%
return to baseline food intake after the OA injection ([1]; all groups (SC, HS95, HF140)): 3 days
effect on feeding behavior ([1]; high fat chow): failed to significantly alter feeding behavior
effect on feeding behavior ([1]; high sucrose chow): failed to significantly alter feeding behavior
duration of anorexia ([1]; standard chow, ICV OA 30 nmol): 48 h
decrease in food intake ([1]; standard chow, for 2 days): ~50%
inhibition of GP, decrease from basal ([2]; HF55, ICV OA 30 nmol): 71%
GIR required to maintain euglycemia ([2]; HF80, ICV OA 30 nmol): 4.64 mg/kg/min and ~9 mg/kg/min
effect on GP ([2]; ICV OA 30 nmol): failed to significantly alter GP
effect on GP ([2]; ICV OA 300 nmol): failed to significantly decrease GP; also recorded: failed to significantly alter GP
rate of glucose disappearance (Rd) ([2]; pancreatic-insulin clamp, any of the experimental groups): did not significantly modify; also recorded: not significantly affected
